Experimental data reported in patent US20250019368A1, “COMPOUND AND PRODUCTION METHOD THEREOF, POLYMERIZABLE COMPOSITION, RESIN COMPOSITION, POLYMER, CURED SUBSTANCE, AND LAMINATE” (FUJIFILM Corporation, priority 2022, published 2025).

Tests used:
Type in all cases: physicochemical
[1] = Absorption spectrum of the compound in chloroform solution (spectral characteristics); conditions: 5×10^−6 mol/L, 1 cm cell; for ε (molar absorption coefficient): at λmax
Experimental: An absorption spectrum of each of the compounds of Examples 1 to 3 and Comparative Examples 1 to 3 was measured according to the following procedure, and the maximal absorption wavelength ([…]), the molar absorption coefficient ([…]), and the width of the absorption spectrum at an absorbance corresponding to ½ of the maximum absorbance (that is, the half-width) were obtained.
Using chloroform as a solvent, a solution in which the compound was dissolved was prepared such that the concentration of the compound in the chloroform was 5×10^−6 mol/L (liter; the same applies hereinafter). Each prepared solution was put into a 1 cm cell, and an absorption spectrum was measured using a spectrophotometer [product name: U-4100, manufactured by Hitachi, Ltd.] as a measurement device.

[2] = Solubility in ethyl acetate, visual check for undissolved residue; conditions: 20.0 mg in 2 mL ethyl acetate, stirred at 40° C. for 10 minutes; no residue means solubility 1% by mass or more
Experimental: The solubility of each compound of Examples 1 to 3 and Comparative Examples 1 to 3 in an organic solvent was measured according to the following procedure.
20.0 mg of the compound was weighed and placed in a container, 2 mL of ethyl acetate was added thereto, and the mixture was stirred at 40° C. for 10 minutes. After the stirring, the presence or absence of undissolved residue of the compound was visually observed. The fact that no undissolved residue of the compound was observed means that the solubility of the compound was 1% by mass or more.

[3] = Solubility in the organic solvents of the polymerizable composition; conditions: solvent (1) propylene glycol monomethyl ether acetate and solvent (2) cyclohexanone, polymerizable composition P4
Source text: A polymerizable composition P4 was obtained in the same manner as in the preparation of the polymerizable composition P1, except that, in the preparation of the polymerizable composition P1, the “exemplary compound 1-13” was changed to the “comparative compound R-3”.
A cured film E4 was obtained in the same manner as in the production of the cured film E1, except that, in the production of the cured film E1, the “polymerizable composition P1” was changed to the “polymerizable composition P4”. However, since the “comparative compound R-3” had extremely low solubility in the organic solvent [that is, the solvent (1) and the solvent (2)], the obtained photocured film D4 and cured film E4 were not films that could be evaluated for the spectral characteristics, so that the following evaluation tests were not performed.

SMILES	Half-width (width of absorption spectrum at ½ of maximum absorbance) [1]	λmax (maximal absorption wavelength) [1]	ε (molar absorption coefficient) [1]	Solubility in ethyl acetate (presence or absence of undissolved residue) [2]	Solubility in the organic solvent [3]
C=C(C)C(=O)OCCOC(=O)C1=C(C)/C(=C2\C(=O)C(c3[nH]c(C)c(CC)c3C)=C2O)N=C1C [Exemplary compound 1-13]	25 nm	556 nm	185,000 L/(mol · cm)	completely dissolved	–
C=Cc1ccc(Cn2c(C)c(CC)c(C)c2C2=C([O-])/C(=C3/C(C)=C(CC)C(C)=[N+]3Cc3ccc(C=C)cc3)C2=O)cc1 [Exemplary compound 1-30]	29 nm	591 nm	158,000 L/(mol · cm)	completely dissolved	–

The next lines start with the values.

Half-width (width of absorption spectrum at ½ of maximum absorbance) [1]	λmax (maximal absorption wavelength) [1]	ε (molar absorption coefficient) [1]	Solubility in ethyl acetate (presence or absence of undissolved residue) [2]	Solubility in the organic solvent [3]	SMILES
23 nm	564 nm	238,000 L/(mol · cm)	not completely dissolved	–	CCC1=C(C)/C(=C2\C(=O)C(c3[nH]c(C)c(CC)c3C)=C2O)N=C1C [R-1]
27 nm	667 nm	363,000 L/(mol · cm)	not completely dissolved	–	C=C(C)C(=O)OCCN(CCOC(=O)C(=C)C)c1ccc(C2=C([O-])/C(=C3\C=CC(=[N+](CCOC(=O)C(=C)C)CCOC(=O)C(=C)C)C=C3NC(C)=O)C2=O)c(NC(C)=O)c1 [R-2]
27 nm	676 nm	356,000 L/(mol · cm)	not completely dissolved	extremely low	CCN(CC)c1ccc(C2=C([O-])/C(=C3\C=CC(=[N+](CC)CC)C=C3NC(C)=O)C2=O)c(NC(C)=O)c1 [R-3]
